Reference: patent US20250114347A1, “TOPICAL NALTREXONE AS A TREATMENT FOR DRY EYE” (The Penn State Research Foundation, priority 2022, published 2025)

Assays:
[1] = tested on: normal rat; test: Schirmer test (tear production) in a normal rat, topical drops; type: in vivo; conditions: 3% NTX solution, topical drop
Method: (§1) Four solutions were prepared with 0%, 0.5%, 1.5%, and 3% naltrexone (NTX). Previous formulations contained 0.003% NTX.
(§2) Experimental paradigm: 1-4 rats were tested with each dose (mixture of male and females). Left eyes only were treated twice daily with one drop. • Schirmer test for baseline (to determine tear production and establish dry eye) • Add drop at 0800 and again at 1700 hr (4:40-6:00 pm) • Take Schirmer test 24 hr later • Add drop at 0800 and again at 1700 hr (4th drop) • Take Schirmer test 48 hr after first drop

[2] = tested on: diabetic rats; test: Schirmer test (tear production) in hyperglycemic rats with dry eye, topical drops twice daily; type: in vivo, Sprague-Dawley rats
Method: as §1
Adult male and female Sprague-Dawley rats were rendered hyperglycemic for 6-8 weeks, with blood glucose levels >600 mg/dL. Age at time of testing was 15-18 weeks of age.
as §2

## O=C1CC[C@@]2(O)[C@H]3Cc4ccc(O)c5c4[C@@]2(CCN3CC2CC2)[C@H]1O5 [NTX, 17-(cyclopropylmethyl)-4,5α-epoxy-3,14-dihydroxymorphinan-6-one]
[1]
  effect on dry eye in a normal rat: caused dry eye
[2]; 0.5% NTX solution, one drop twice daily, Schirmer test at 24 and 48 hr
  reversal of dry eye: reversed dry eye
[2]; 1.5% NTX solution compared with 0.5% and 3%
  relative effectiveness among the tested concentrations: most effective
[2]; 1.5% NTX solution, one drop twice daily, Schirmer test at 24 and 48 hr
  reversal of dry eye: reversed dry eye
[2]; 3% NTX solution left at RT for 3 weeks (some decomposition of the NTX)
  reversal of dry eye: effective at reversing dry eye
[2]; 3% NTX solution, both male and female, one drop twice daily, Schirmer test at 24 and 48 hr
  reversal of dry eye: did not reverse dry eye
